Experimental data as given in patent publication US20240350643A1, “PROTEIN DEGRADATION AGENT” (SUZHOU KINTOR PHARMACEUTICALS, INC., priority 2021, published 2024).

Key:
c-Myc protein = target: T1, c-Myc protein (Homo sapiens, UniProt P01106); test: Ability of compounds to degrade c-Myc protein in HL60 cells (ELISA); type: cell-based; settings: HL-60, 1 μM compound, 24 h, read-out: HL60 cells Protein degradation rate (1 μM)
T1 construct: endogenous in cells; host or cells: HL60 cells

HL60 cells = test: Anti-proliferation ability of compounds on HL60 cells (CTG); type: cell-based, human; settings: Homo sapiens, HL-60, 72 h, 3 days, CellTiter-Glo, read-out: HL60 cells Proliferation inhibitory activity
Method in brief: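 Proliferation inhibition IC50 derived from CellTiter-Glo luminescence after 3-day compound treatment of HL60 cells plated at 20000 per well, against 0.1% DMSO controls.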

T1 sequence (P01106 whole entry): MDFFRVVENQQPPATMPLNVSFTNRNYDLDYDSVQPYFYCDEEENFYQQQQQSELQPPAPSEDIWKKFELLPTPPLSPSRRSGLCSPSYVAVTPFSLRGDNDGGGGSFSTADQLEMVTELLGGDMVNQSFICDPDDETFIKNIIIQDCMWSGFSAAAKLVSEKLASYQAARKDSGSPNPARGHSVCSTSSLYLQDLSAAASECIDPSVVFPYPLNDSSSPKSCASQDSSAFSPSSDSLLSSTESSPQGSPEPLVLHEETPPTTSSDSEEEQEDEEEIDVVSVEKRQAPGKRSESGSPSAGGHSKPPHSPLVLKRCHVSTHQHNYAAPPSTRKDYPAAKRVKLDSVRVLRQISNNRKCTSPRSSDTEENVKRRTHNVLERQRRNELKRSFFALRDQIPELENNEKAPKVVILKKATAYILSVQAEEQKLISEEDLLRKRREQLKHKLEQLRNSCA

inhibition at 1 µM (c-Myc protein) [%]	IC50 (HL60 cells) [nM]	SMILES
60 to 90	710 ± 40.1	CC(C)(C(=O)NCc1ccc(CNC(=O)c2ccc3c(c2)C(=O)N(C2CCC(=O)NC2=O)C3=O)cc1)c1ccccc1 (centres unmarked) [A69]
30 to 60	66.2 ± 14.6	O=C(Cn1c2ccccc2c2cccnc21)NCc1cccc(CNC(=O)c2ccc3c(c2)C(=O)N(C2CCC(=O)NC2=O)C3=O)c1 (centres unmarked) [A38]
60 to 90	9.1 ± 0.3	O=C(Cc1nccc2ccccc12)NCc1ccc(CNC(=O)c2ccc3c(c2)C(=O)N(C2CCC(=O)NC2=O)C3=O)cc1 (centres unmarked) [A33]
10 to 30	5020 ± 23	O=C(Cc1cccc2ccccc12)NCc1cnc(CNC(=O)c2ccc3c(c2)C(=O)N(C2CCC(=O)NC2=O)C3=O)s1 (centres unmarked) [A133]
60 to 90	4 ± 1.7	CN(CCc1ccc(Cl)c(Cl)c1)Cc1ccc(CC(=O)Nc2ccc3c(c2)C(=O)N(C2CCC(=O)NC2=O)C3=O)cc1 (centres unmarked) [A170]
60 to 90	3579 ± 29	O=C1CCC(N2C(=O)c3ccc(C(=O)NC[C@H]4CC[C@H](CNC(=O)Nc5cccc6ccncc56)CC4)cc3C2=O)C(=O)N1 (some centres unmarked) [A48]
30 to 60	3590 ± 1180	O=C(Cc1cccc2ccccc12)NCCCCCCCCOc1ccc2c(c1)C(=O)N(C1CCC(=O)NC1=O)C2=O (centres unmarked) [A17]
60 to 90	0.5 ± 0.3	O=C(Cn1c2ccccc2c2cccnc21)NCc1ccc(CNC(=O)c2ccc3c(c2)CN(C2CCC(=O)NC2=O)C3=O)cc1 (centres unmarked) [A153]
60 to 90	0.5 ± 0.1	O=C(Cc1cccc2ccccc12)NCc1ccc(CNCc2ccc3c(c2)CN(C2CCC(=O)NC2=O)C3=O)c(F)c1 (centres unmarked) [A196]
60 to 90	4.4	CN(CCn1c2ccccc2c2cccnc21)Cc1ccc(CNC(=O)c2ccc3c(c2)C(=O)N(C2CCC(=O)NC2=O)C3=O)cc1F (centres unmarked) [A110]
60 to 90	374 ± 51.1	O=C1CCC(N2C(=O)c3ccc(C(=O)NCc4ccc(CNC(=O)C5(c6ccccc6Br)CC5)cc4)cc3C2=O)C(=O)N1 (centres unmarked) [A70]
30 to 60	391 ± 4.7	O=C(CN(c1ccccc1)c1ccccc1)NCCCCCCNC(=O)c1ccc2c(c1)C(=O)N(C1CCC(=O)NC1=O)C2=O (centres unmarked) [A5]
10 to 30	1270 ± 51	O=C(CCn1c2ccccc2c2ccccc21)NCCCCCCNC(=O)c1ccc2c(c1)C(=O)N(C1CCC(=O)NC1=O)C2=O (centres unmarked) [A13]
60 to 90	440 ± 120	N#CCCN(CCc1cccc2ccccc12)Cc1ccc(CNC(=O)c2ccc3c(c2)C(=O)N(C2CCC(=O)NC2=O)C3=O)cc1 (centres unmarked) [A92]
60 to 90	117.7 ± 1.1	CC(C)(NC(=O)c1ccc2c(c1)C(=O)N(C1CCC(=O)NC1=O)C2=O)c1ccc(CNC(=O)Cc2cccc3ccccc23)cc1 (centres unmarked) [A145]
60 to 90	432 ± 138	O=C1CCC(N2C(=O)c3ccc(C(=O)NCc4ccc(COCCn5c6ccccc6c6cccnc65)cc4)cc3C2=O)C(=O)N1 (centres unmarked) [A76]
60 to 90	7.6 ± 3	CC(C)(NC(=O)Cc1cccc2ccccc12)c1ccc(CNC(=O)c2ccc3c(c2)C(=O)N(C2CCC(=O)NC2=O)C3=O)cc1 (centres unmarked) [A149]
60 to 90	5060 ± 137	CC(C)(C)OC(=O)NC[C@H]1CC[C@H](CNc2ccc3c(c2)C(=O)N(C2CCC(=O)NC2=O)C3=O)CC1 (some centres unmarked) [A28]
60 to 90	2.7 ± 1.8	O=C(Cn1c2ccccc2c2cccnc21)NCc1ccc(CNC(=O)c2ccc3c(c2)C(=O)N(C2CCC(=O)NC2=O)C3=O)cc1F (centres unmarked) [A108]
60 to 90	< 3	CN(CCc1ccc(Cl)cc1Cl)Cc1ccc(CC(=O)Nc2ccc3c(c2)CN(C2CCC(=O)NC2=O)C3=O)c(F)c1 (centres unmarked) [A174]
10 to 30	221 ± 54.5	O=C(Cn1c2ncccc2c2cccnc21)NCCCCCCNC(=O)c1ccc2c(c1)C(=O)N(C1CCC(=O)NC1=O)C2=O (centres unmarked) [A4]
60 to 90	7.5 ± 1.1	CN(CCc1ccc(Cl)cc1Cl)Cc1ccc(CNCc2ccc3c(c2)C(=O)N(C2CCC(=O)NC2=O)C3=O)cc1 (centres unmarked) [A185]
